We go through four molecules from patent publication US10238738B2, “Methods of modulating immune system responses” (priority 2014, dated 2019).

Common to all, as to format: cell-based, human
Test [1] deals with HIV LTR-luciferase in Jurkat 1G5 cells. Nature of the test: LTR-driven luciferase in Jurkat 1G5 cells with reversible digitonin permeabilization. The conditions noted are these: FIG. 3a. On the procedure: (§1) 293T were maintained in DMEM supplemented with 10% FBS, 1% glutamax, and 1% penicillin streptomycin. Jurkat 1G5 cells contain a stably-integrated LTR-luciferase reporter gene (Aguilar-Cordova et al., 1994), and were maintained in RPMI supplemented with 10% FBS and 1% glutamax. THP-1 cells were maintained in RPMI supplemented with 10% FBS and 1% glutamax and differentiated to macrophages with 50 ng/ml PMA for 48 hr, followed by a 48 hr rest period prior to stimulation. To measure LTR-driven luciferase, 1G5 cells were lysed and luminescence determined using the Luciferase Assay kit (Promega) according to manufacturer's instructions. Results are expressed as fold change compared to untreated. 293T cells were transfected in 96 well plates with 90 ng ELAM firefly luciferase reporter plasmid (Chow et al., 1999) and 10 ng pRL-TK Renilla plasmid using TransiT LTI (Mirus). 18 hours later cells were treated for 6 hours and luciferase activity determined using the Dual-Glo Luciferase Assay System (Promega). Results are expressed as fold increase relative to transfected, mock treated cells following normalization to Renilla luciferase. […]

Another test relates to NF-κB. Kind of test: NF-κB luciferase reporter assay in 293T cells. On the procedure:
as §1, with “luciferase. Digitonin permeabilization assays were done as described previously (Girardin et al., 2003) with the following modifications: 1G5 cells were stimulated with purified HBP supernatants, or 10 μg/ml flagellin (Invivogen) for 20 minutes at 4° C. in the absence or presence of 2 μg/ml digitonin (Sigma).” for “luciferase.”
293T were maintained in DMEM supplemented with 10% FBS, 1% glutamax, and 1% penicillin streptomycin. […] To measure LTR-driven luciferase, 1G5 cells were lysed and luminescence determined using the Luciferase Assay kit (Promega) according to manufacturers instructions. Results are expressed as fold change compared to untreated. […] 18 hours later cells were treated for 6 hours and luciferase activity determined using the Dual-Glo Luciferase Assay System (Promega). Results are expressed as fold increase relative to transfected, mock treated cells following normalization to Renilla luciferase.
On the technique in general: In a reporter assay the amount or activity of a reporter protein is the signal.

In another test the test system is THP-1 macrophages. Kind of test: Infection of THP-1 macrophages with serum-opsonized E. coli, IL-6 production. To be noted: 10 μg/ml cytochalasin D for 30 min; FIG. 6a. As for the experimental part:
Neisseria strains were grown overnight on GC agar supplemented with IsovitaleX enrichment (BD Biosciences). E. coli and S. typhimurium were grown overnight on LB agar, S. pneumoniae was grown on Columbia blood agar containing 5% sheep blood, and H. influenzae, B. multivorans, L. monocytogenes, and S. aureus were grown on brain heart infusion (BHI) agar (BD Biosciences). Where culture supernatant was desired, overnight cultures were scraped into PBS, re-suspended in RPMI 1% Isovitalex at an OD600=0.2, grown for 6 hours and the spent medium filtered through a 0.22 μm filter. For heat-killed bacteria, overnight cultures were scraped into PBS and 1 OD600 unit was re-suspended in 100 μl PBS and heated to 65° C. for 1 hr, with the exception of B. multivorans which was heated to 85° C. Cell pellets were washed, re-suspended in 100 μl PBS, and 2 μl/well used as treatment. To generate lysates, cultures were treated as above and boiled for 15 minutes. […]
Relative expression was calculated using the 2^−ΔΔCT method following normalization of target gene abundance to GAPDH. Quantitative measurements of cytokines were performed using ELISA kits form R&D Systems (KC, IL-23, IFN-β) or BD Biosciences (IL-1β, IL-8, IL-6, IL-12p70, TNF-α). Nuclear extracts were prepared from Jurkat T cells and NF-κB subunit binding was determined using the TransAM® Transcription Factor ELISA (Active Motif). […]

For a further test, the system named is NF-κB response to HBP. Nature of the test: HBP internalization assay: NF-κB luciferase in 293T cells pre-treated with inhibitors. The conditions noted are these: 80 μM Dynasore or 10 μM cytochalasin D 1 hr prior to stimulation, FIG. 3b. On the procedure:
as §1

For flagellin, the “Luciferase activity after delivery into the cytosol” value in test [1] is “remained constant”.

Consider `C[C@H](N)C(=O)N[C@H](CCC(=O)N[C@@H](CCC[C@@H](N)C(=O)O)C(=O)O)C(=O)O` [m-TriDAP, reference compound], for which the “NF-κB response of 293T cells to known Gram-negative PAMPs” value in the test on NF-κB was “unresponsive”.

In the case of `C=C1[C@@H](C)[C@H]2[C@H](Cc3ccccc3)NC(=O)[C@]23[C@H](OC(C)=O)/C=C/[C@@](C)(O)C(=O)[C@@H](C)C/C=C/[C@H]3[C@@H]1O` [cytochalasin D], in the test with THP-1 macrophages, the “Effect of pre-treatment on the higher IL-6 production induced by HBP-synthesizing E. coli” value was “abrogated the effect”. Besides, the “Effect of inhibitor on NF-κB response to HBP” value in the test with NF-κB response to HBP is recorded as “not”.

As to `O=C(N/N=C/c1ccc(O)c(O)c1)c1cc2ccccc2cc1O` [Dynasore], the “Effect of inhibitor on NF-κB response to HBP” value in the test on NF-κB response to HBP is listed as “attenuated the NF-κB response to HBP”.
